Measured values from patent US9309336B2, “Synthesis and antiscalant behavior of a novel polyzwitterionic acid” (King Fahd University of Petroleum and Minerals, priority 2013, dated 2016).
Values joined by “and” are separate entries in the source; they are usually repeats but may differ in a detail not shown here. Equal entries are not always repeated.

Legend:
[1] = Solubility of monomer 4 (observation at isolation); format: physicochemical
Description: Synthesis of 3-[Diallyl{3-(diethoxyphosphoryl)propyl}ammonio]propane-1-sulfonate (4) preferably occurs by the following method: under N2 at 70° C., a solution of diethyl 3-(diallylamino)propylphosphonate 2 (15.0 g, 54.5 mmol) and 3 (7.0 g, 57.3 mmol) in CH3CN (30 cm^3) was stirred for 60 h. The residue, after removal of acetonitrile, was crystallized from acetone (30 cm^3) in the presence of small amount of methanol to give white crystals of 4 (19.5 g, 90%). The extremely hygroscopic monomer is insoluble in acetone but soluble in methanol or water. Mp 140-142° C. (closed capillary); (Found: C, 47.9; H, 8.4; N, 3.4; S, 7.8%. C16H32NO6PS requires C, 48.35; H, 8.11; N, 3.52; S, 8.07%); νmax (KBr): 3402, 2985, 2940, 1644, 1479, 1428, 1394, 1213, 1042, 967, 875, 786, 733 and 605 cm^−1; δH (D2O) 1.22 (6H, t, J=7 Hz), 1.86 (2H, m), 1.96 (2H, m), 2.11 (2H, m), 2.84 (2H, t, J=7.5 Hz), 3.23 (2H, apparent t, J=10 Hz), 3.31 (2H, apparent t, J=10 Hz), 3.85 (4H, d, J=7 Hz), 4.04 (4H, m), 5.64 (4H, m), 5.89 (2H, m), (HOD: 4.65); δC (D2O) 15.83 (s, PCH2CH2), 16.47 (d, 2C, Me, ^3J (PC) 4.1 Hz), 18.29 (s, SCH2CH2), 21.45 (d, PCH2, ^1J (PC) 143 Hz), 47.97 (s, SCH2CH2CH2), 57.26 (s, SCH2CH2CH2), 58.32 (d, PCH2CH2CH2, ^3J (PC) 16.4 Hz), 61.72 (2C, ═CH—CH2, s), 64.38 (d, 2C, OCH2CH3, ^2J (PC) 6.2 Hz), 124.40 (2C, s, CH2=CH), 129.80 (2C, s, CH2═CH) (dioxane: 67.40 ppm); δP (202 MHz, D2O): 31.01 (s). DEPT 135 NMR analysis was carried out to assign the ^13C signals.

[2] = Potentiometric titration for protonation (basicity) constants; format: physicochemical; settings: 23° C.; for Log K1^o (first protonation), Average / Log K2^o (second protonation), Average / n1 (first protonation), Average / n2 (second protonation), Average: average of runs 1-3, SD in last digit in parentheses
Description: Protonation constants (K1 and K2) of polymer 8 [ZH2^±=] and its corresponding monomer unit 11 [ZH2^±=] were determined by potentiometric titrations which were carried out in atmosphere of N2 in CO2-free water as described elsewhere using a solution (Tables 3 and 4) of PZDA 6 [ZH2^±] or monomer form 11 [ZH2^±=] in 200 cm^3 of salt-free water or 0.1 N NaCl (S. A. Ali, et al., J. Polym. Sc. A: Polym. Chem. 2010, 48, 5693-5703—incorporated herein by reference in its entirety). The Log K1 and Log K2 of the —P(═O)O^= (in 8 or 11) are calculated at each pH value by the Henderson-Hasselbalch eq 2 (Scheme 1) where a is the ratio [ZH^±−]eq/[Z]o and [ZH2^±]eq/[Z]o, respectively. The [ZH^±−]eq and [ZH2^±]eq represent the respective equilibrium concentrations of the first and second protonated species whereas [Z]o describes the initial concentration of repeating units.
For the determination of the second step protonation constant (log K2) of —P(═O)(OH)O^− (i.e. [ZH^±−]) using the titration of polymer 6 [ZH2^±] with NaOH, [Z]o and [ZH2^±]eq are related by [ZH2^±]eq=[Z]o−COH^−−[H^+]+[OH^−], where COH^− represent the added NaOH concentration. The equilibrium [H^+] and [OH^−] values were calculated from the pH value (W. K. Felty, J. Chem. Educ. 1978, 55, 576; R. Barbucci, et al., Macromolecules 1981, 14, 1203-1209—each incorporated herein by reference in its entirety). The first step protonation constant (log K1) involving the protonation of —P(═O)(O^−)2 (i.e. [Z^±=]) using volume of the titrant after deducting the equivalent volume from the total volume. In this case, α represents the ratio [ZH^±−]eq/[Z]o whereby [ZH^±−]eq equals [Z]o−COH^−−[H^+]+[OH^−]. For the titration of 11 [Z^±=] with HCl, the protonated species' concentration is given by: [ZHi=1,2]eq═CH^+−[H^+]+[OH^−].
Eq. 3 (Scheme 1) describes the apparent basicity constants of —P(═O)(O^−)2 where log K^o=pH at α=0.5 and n=1 in the case of sharp basicity constants.
The ‘n’ and log K^o as the respective slope and intercept were determined from the linear regression fit of pH vs. log [(1−α)/α)]. Protonation at the same time of the three basic sites: —PO3^=(log K1≈+8), —PO3H^− (log K2≈+3) and —SO3^−(log K3≈−2.1) (J. P. Guthrie, Can. J. Chem. 1978, 56, 2342-2354—incorporated herein by reference in its entirety) is not likely due to differences of their basicity constants by about 5 orders of magnitude (vide infra). Note that basicity constant log K of any base B is the pKa of its conjugate acid BH^+.

[3] = 0.1M NaCl, single runs (polymer runs 1, 2 in the presence of 1.5 mL of 0.1222M HCl)

C=CC[N+](CC=C)(CCCP(=O)(OCC)OCC)CCCS(=O)(=O)[O-] [Monomer 4, 3-[diallyl{3-(diethoxyphosphoryl)propyl}ammonio]propane-1-sulfonate]
solubility ([1]; acetone): insoluble | solubility ([1]; methanol): soluble | solubility ([1]; water): soluble

C=CC[N+](CC=C)(CCCP(=O)([O-])[O-])CCCS(=O)(=O)[O-].[Na+].[Na+] [Monomer 11]
Log K1^o (first protonation), Average ([2]; 0.1M NaCl): 7.12 (1) | Log K2^o (second protonation), Average ([2]; 0.1M NaCl): 2.90 (5) | n1 (first protonation), Average ([2]; 0.1M NaCl): 1.03 (1) | n2 (second protonation), Average ([2]; 0.1M NaCl): 1.01 (4) | Log K1^o (first protonation) ([2]; 0.1M NaCl, single runs): 7.12 and 7.11 and 7.13 | n1 (first protonation) ([2]; 0.1M NaCl, single runs): 1.03 and 1.04 | Log K2^o (second protonation) [2, 3]: 2.91 and 2.84 and 2.94 | n2 (second protonation) [2, 3]: 0.993 and 1.06 and 0.990 | Log K1^o (first protonation), Average ([2]; Salt-Free water): 7.53 | Log K2^o (second protonation), Average ([2]; Salt-Free water): 2.74 (2) | n1 (first protonation), Average ([2]; Salt-Free water): 1.04 (1) | n2 (second protonation), Average ([2]; Salt-Free water): 1.02 (3) | Log K1^o (first protonation) ([2]; Salt-Free water, single runs): 7.50 and 7.54 and 7.55 | Log K2^o (second protonation) ([2]; Salt-Free water, single runs): 2.75 and 2.72 | n1 (first protonation) ([2]; Salt-Free water, single runs): 1.04 and 1.05 | n2 (second protonation) ([2]; Salt-Free water, single runs): 1.02 and 0.984 and 1.05
